According to US8728797B2, “Yeast membrane protein expression system and its application in drug screening” (priority 2001, dated 2014):
≈ marks a conversion by molar mass, not a printed value. Marks after values point to notes of the source that are not given here.

Columns and labels:
[1] = system: S. cerevisiae 27A (CaCdr2p); experiment: Checkerboard chemosensitisation to fluconazole; assay type: cell-based
Method: (§1) Checkerboard drug susceptibility assays were used to measure the chemosensitisation of cells to fluconazole by test compounds such as Pdr5p inhibitors. Fluconazole concentration in the CSM-URA medium was varied in one dimension (between 0 and 80 μg/ml) and the concentration of the test compound was varied in the second dimension (between 0 and 40 μM). Cell inocula, growth conditions and the optical determination of growth were identical to standard liquid MIC determinations. The assays were conducted in 6 by 6 well arrays centred in a 96 well microtitre plate using buffered CSM-URA medium at pH 7.0, with fluconazole and/or peptide included in each well at the indicated concentration.

[2] = system: C. dubliniensis CD36; experiment: Checkerboard chemosensitisation to fluconazole; assay type: cell-based
Method: as §1

[3] = system: S. cerevisiae AD12345678u-; experiment: Checkerboard chemosensitisation to fluconazole; assay type: cell-based
Method: as §1

[4] = system: S. cerevisiae 4 (CgPdh1p); experiment: Checkerboard chemosensitisation to fluconazole; assay type: cell-based
Method: as §1

[5] = system: S. cerevisiae 1B (CgCdr1p); experiment: Checkerboard chemosensitisation to fluconazole; assay type: cell-based
Method: as §1

[6] = system: C. krusei B2399; experiment: Checkerboard chemosensitisation to fluconazole; assay type: cell-based
Method: as §1

[7] = system: C. albicans FR2 (Ben^Rp); experiment: Checkerboard chemosensitisation to fluconazole; assay type: cell-based
Method: as §1

[8] = system: AD-PDR5 (Pdr5p); experiment: MIC in liquid microdilution assay, AD-PDR5; assay type: cell-based, S. cerevisiae; settings: Saccharomyces cerevisiae
Method: (§2) The MICs of antifungal agents for S. cerevisiae cells were determined by a microdilution test based on the macrodilution reference method of the National Committee for Clinical Laboratory Standards. Cells (10 μl cell suspension, 2×10^5 cells/ml) were inoculated into 90 μl CSM-URA, buffered with 10 mM 2-(N-morpholino)ethanesulfonic acid (MES) and 18 mM N-2-hydroxyethylpiperazine-N′-2-ethanesulfonic acid (HEPES), pH 7.0 and containing 0.67% (w/v) yeast nitrogen base (YNB) in microtitre plate wells. For the uracil-requiring strain AD1-8u^− the medium was supplemented with 0.02% (w/v) uridine. The wells contained, in […], doubling dilutions of antifungal agents (final concentrations: fluconazole, 40-0.078 μg/ml; itraconazole and ketoconazole, 8-0.016 μg/ml). The microtitre plates were incubated at 30° C. for 48 h with shaking and then the growth of cells in individual wells (OD590) was measured with a microplate reader (EL 340, Bio-Tek, Winooski, Vt.). The MIC80 was the lowest concentration of drug that inhibited growth yield by at least 80% compared to a no-drug control.

[9] = system: AD-PDR5 (Pdr5p); experiment: Disk diffusion assay, AD-PDR5; assay type: cell-based, S. cerevisiae; settings: AD-pABC as negative control, 30° C., 48 h
Method: (§3) The cells were spread on CSM-agar plates and exposed to the drugs or chemicals applied to filter disks and incubated at 30° C. for 48 h. The amounts of individual drugs are given in the Materials and Methods section of Example 3. Rhodamine 6G and rhodamine 123 were dissolved in ethanol and the other antifungals were dissolved in DMSO.
(§4) Drug susceptibility was measured using disk assays on CSM-URA plates (containing 1.5% w/v agar). Yeast cells (200 μl ml of 5×10^6 cells/ml) were spread on the plates. 10 μl of drug solution or solvent control were spotted onto sterile Whatman paper disks on the pre-spread plates. The following amounts (nmoles) of drugs were applied to individual disks: fluconazole, 633 (Pfizer Ltd., Sandwich, Kent, United Kingdom); itraconazole, 0.23 (Janssen); miconazole, 0.42 (Janssen); cycloheximide, 0.71 (Sigma); rhodamine 6G, 100 (Sigma, Penrose, Auckland, N. Z.); rhodamine 123, 125 (Sigma); cerulenin 4.5 (Sigma); 5-flucytosine 100 (Sigma); amphotericin B, 97 (E. R. Squibb & Sons, Princeton, N.J.); nystatin 65 (Sigma). Agar plates were incubated at 30° C. for 48 h or until clear growth inhibition zones were visible.

[10] = system: AD-BEN^R (Ben^Rp); experiment: Disk diffusion assay, AD-BEN^R; assay type: cell-based, S. cerevisiae; settings: AD-pABC as negative control, 30° C., 48 h
Method: as §3, §4

[11] = system: AD1-8u^− derivative transformed with C. glabrata PDH1; experiment: MIC, PDH1 construct; assay type: cell-based, S. cerevisiae; settings: Nakaseomyces glabratus; PDH1 hyper-expressed
Method: as §2

[12] = system: S. cerevisiae AD1-8 sec6-4/CDR1; experiment: MIC microdilution test, sec6-4 host with CDR1; assay type: cell-based; settings: Saccharomyces cerevisiae, 30° C.
Method: as §2

[13] = system: C. parapsilosis 425; experiment: Checkerboard chemosensitisation to fluconazole; assay type: cell-based; settings: KN20 0-80 μM and FCZ 32 μg/ml tested, no chemosensitisation
Method: as §1, with “Fluconazole concentration in the CSM-URA medium was varied in one dimension (between 0 and 80 μg/ml) and the concentration of the test compound was varied in the second dimension (between 0 and 40 μM).” left out

[14] = target: S. cerevisiae plasma membrane H^+-ATPase (Pma1p) (Saccharomyces cerevisiae, UniProt P05030); experiment: Plasma membrane H+-ATPase inhibition; assay type: biochemical; settings: read-out: 150 for plasma membrane H^+-ATPase
Chain of S. cerevisiae plasma membrane H^+-ATPase (Pma1p) (P05030 whole entry): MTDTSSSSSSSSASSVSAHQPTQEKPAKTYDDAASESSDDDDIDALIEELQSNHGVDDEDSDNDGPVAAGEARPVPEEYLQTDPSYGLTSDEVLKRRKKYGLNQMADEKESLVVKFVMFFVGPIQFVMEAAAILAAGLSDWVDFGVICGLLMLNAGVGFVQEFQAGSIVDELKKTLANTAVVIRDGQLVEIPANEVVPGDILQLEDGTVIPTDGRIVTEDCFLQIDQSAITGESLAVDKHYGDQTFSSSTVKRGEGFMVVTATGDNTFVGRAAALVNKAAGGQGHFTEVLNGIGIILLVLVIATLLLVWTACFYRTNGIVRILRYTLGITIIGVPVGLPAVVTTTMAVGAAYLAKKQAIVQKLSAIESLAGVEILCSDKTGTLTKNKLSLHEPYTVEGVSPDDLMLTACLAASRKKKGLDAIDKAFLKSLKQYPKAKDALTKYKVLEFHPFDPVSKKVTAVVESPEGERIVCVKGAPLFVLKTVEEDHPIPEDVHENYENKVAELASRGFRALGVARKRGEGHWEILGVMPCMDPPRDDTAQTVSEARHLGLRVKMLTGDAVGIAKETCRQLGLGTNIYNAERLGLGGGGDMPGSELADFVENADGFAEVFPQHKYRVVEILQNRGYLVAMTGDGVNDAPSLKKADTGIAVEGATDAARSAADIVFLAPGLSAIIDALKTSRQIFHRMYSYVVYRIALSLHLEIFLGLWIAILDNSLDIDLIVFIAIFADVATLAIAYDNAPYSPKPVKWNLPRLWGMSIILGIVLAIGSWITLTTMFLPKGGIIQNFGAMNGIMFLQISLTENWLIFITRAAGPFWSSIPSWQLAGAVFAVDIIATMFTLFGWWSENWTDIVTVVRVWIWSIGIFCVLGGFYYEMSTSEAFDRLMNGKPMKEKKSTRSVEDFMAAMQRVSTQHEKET

For `OC(Cn1cncn1)(Cn1cncn1)c1ccc(F)cc1F` [fluconazole], which “Chemosensitising concentration FCZ” value ([1]; with KN20) is on record?
The value was 20 µg/mL.

What about the “Chemosensitising concentration FCZ” value [2] of the same molecule?
The value was 0.31 µg/mL.

What about the “Chemosensitising concentration FCZ” value [3] of the same molecule?
Its value is 0.125 µg/mL.

What about the “Chemosensitising concentration FCZ” value ([4]; with KN20) of the same molecule?
Its value is 1.25 µg/mL.

And the “Chemosensitising concentration FCZ” value ([5]; with KN20)?
Its value is 40 µg/mL.

What about the “Chemosensitising concentration FCZ” value [6] of the same molecule?
The value was 80 µg/mL.

What about the “Chemosensitising concentration FCZ” value ([7]; with KN20) of the same molecule?
Its value is 8 µg/mL.

And the MIC [8]?
The MIC was 400 µg/mL (≈ 1310 µM).

And the “resistance/sensitivity in disk diffusion assay” value [9]?
The value was “resistances”.

What about the “resistance/sensitivity in disk diffusion assay” value [10] of the same molecule?
The value was “resistant”.

What about the MIC [11] of the same molecule?
The MIC was 200 µg/mL (≈ 653 µM).

And the MIC80 [12]?
The MIC80 was 80 µg/mL (≈ 261 µM).

What does the source list for “D-octapeptide NH2-Asn-Trp-Trp-Lys-Val-Arg-Arg-Arg-CONH2 with a single 4-methoxy-2,3,6-trimethylbenzenesulphonyl (Mtr) substituent on one tryptophan sidechain; Pdr5p inhibitor [KN20]”?
Chemosensitising concentration KN20 [1]: 20 µM; Fold-sensitisation by KN20 (For FCZ MIC) [1]: 4 fold; Chemosensitising concentration KN20 ([2]; C. dubliniensis CD36): 80 µM; Fold-sensitisation by KN20 (For FCZ MIC) ([2]; C. dubliniensis CD36, resistant tail eliminated): 64.5^a fold; Chemosensitising concentration KN20 ([3]; S. cerevisiae AD12345678u-): 7.5 µM; Fold-sensitisation by KN20 (For FCZ MIC) ([3]; S. cerevisiae AD12345678u-): 2 fold; Chemosensitising concentration KN20 [4]: 20 µM; Fold-sensitisation by KN20 (For FCZ MIC) [4]: 16 fold; Chemosensitising concentration KN20 [5]: 15 µM; Fold-sensitisation by KN20 (For FCZ MIC) [5]: 8 fold; Chemosensitising concentration KN20 ([6]; C. krusei B2399): 80 µM; Fold-sensitisation by KN20 (For FCZ MIC) ([6]; C. krusei B2399): 2.5 fold; Chemosensitising concentration KN20 [7]: 20 µM; Fold-sensitisation by KN20 (For FCZ MIC) [7]: 4 fold; Fold-sensitisation by KN20 (For FCZ MIC) [13]: 1^b fold; IC50 [14]: 10 µM
